Data taken from ChEMBL document CHEMBL4316588, “Design, Synthesis, and Biological Evaluation of Novel DNA Gyrase-Inhibiting Spiropyrimidinetriones as Potent Antibiotics for Treatment of Infections Caused by Multidrug-Resistant Gram-Positive Bacteria” (J Med Chem, 2019).
Values after ≈ are worked out from the molar mass of the structure shown.

Columns and labels:
[1] = Solubility of the compound in pH 6.8 intestinal juice incubated at 37 degC for 24 hrs by LC/MS/MS analysis; type: physicochemical
[2] = system: Streptococcus pneumoniae; test: Antibacterial activity against penicillin-resistant Streptococcus pneumoniae after 18 to 20 hrs by CLSI-protocol based broth microdilution method; type: functional
[3] = system: Staphylococcus aureus; test: Antibacterial activity against methicillin-sensitive Staphylococcus aureus infected in Kunming mouse treated with 50 mg/kg cytochrome P450 inhibitor ABT dosed subcutaneously at 0.5 and 4.0 hrs postinfection followed by and measured at 7 to 14 days post treatment by Bliss method; type: functional; conditions: sc
[4] = Elimination half life in CD1 mouse at 10 mg/kg, po by LC-MS/MS analysis; type: ADME, organism-based; conditions: in vivo, read-out: beta t1/2 (converted)
[5] = system: Staphylococcus epidermidis; test: Antibacterial activity against methicillin-sensitive Staphylococcus epidermidis after 18 to 20 hrs by CLSI-protocol based broth microdilution method; type: functional
[6] = system: Streptococcus pyogenes; test: Antibacterial activity against Streptococcus pyogenes after 18 to 20 hrs by CLSI-protocol based broth microdilution method; type: functional
[7] = Solubility of the compound in water incubated at 37 degC for 24 hrs by LC/MS/MS analysis; type: physicochemical
[8] = system: Neisseria gonorrhoeae; test: Antibacterial activity against Neisseria gonorrhoeae after 18 to 20 hrs by CLSI-protocol based agar microdilution method; type: functional
[9] = molecular target: DNA gyrase (Staphylococcus aureus, UniProt P0A0K8+P20831)
Description: Inhibition of Staphylococcus aureus DNA gyrase supercoiling activity using relaxed pHOT-1 DNA as substrate after 60 mins by ethidium bromide-based gel electrophoresis

[10] = MRT in CD1 mouse at 10 mg/kg, po by LC-MS/MS analysis; type: ADME, organism-based; conditions: in vivo
[11] = system: Staphylococcus epidermidis; test: Antibacterial activity against methicillin-resistant Staphylococcus epidermidis after 18 to 20 hrs by CLSI-protocol based broth microdilution method; type: functional
[12] = AUCt in CD1 mouse at 10 mg/kg, po by LC-MS/MS analysis; type: ADME, organism-based; conditions: in vivo
[13] = system: Staphylococcus aureus; test: Antibacterial activity against methicillin-resistant Staphylococcus aureus infected in Kunming mouse treated with 50 mg/kg cytochrome P450 inhibitor ABT dosed subcutaneously at 0.5 and 4.0 hrs postinfection followed by and measured at 7 to 14 days post treatment by Bliss method; type: functional; conditions: sc
[14] = system: Staphylococcus aureus; test: Antibacterial activity against methicillin-resistant Staphylococcus aureus after 18 to 20 hrs by CLSI-protocol based broth microdilution method; type: functional
[15] = Solubility of the compound in pH 1.2 gastric juice incubated at 37 degC for 24 hrs by LC/MS/MS analysis; type: physicochemical
[16] = system: Staphylococcus aureus; test: Antibacterial activity against methicillin-sensitive Staphylococcus aureus after 18 to 20 hrs by CLSI-protocol based broth microdilution method; type: functional; conditions: Staphylococcus aureus; read-out: MIC
[17] = molecular target: DNA topoisomerase 2-alpha (Homo sapiens, UniProt P11388); test: Inhibition of human topoisomerase-2alpha using catenated DNA as substrate after 30 mins by ethidium bromide-based gel electrophoresis
[18] = Cmax in CD1 mouse at 10 mg/kg, po by LC-MS/MS analysis; type: ADME, organism-based; parameters: dose 10 mg/kg, route oral; conditions: in vivo
[19] = Tmax in CD1 mouse at 10 mg/kg, po by LC-MS/MS analysis; type: ADME, organism-based; conditions: in vivo
[20] = Cmax in Beagle dog at 5 mg/kg, po by LC-MS/MS analysis; type: ADME, organism-based, Canis lupus familiaris; parameters: dose 5 mg/kg, route oral; conditions: in vivo
[21] = Elimination half life in Beagle dog at 5 mg/kg, po by LC-MS/MS analysis; type: ADME, organism-based, Canis lupus familiaris; conditions: in vivo, read-out: beta t1/2 (converted)
[22] = Oral bioavailability in Sprague-Dawley rat at 10 mg/kg by LC-MS/MS analysis; type: ADME, organism-based; conditions: in vivo
[23] = Elimination half life in Sprague-Dawley rat at 10 mg/kg, po by LC-MS/MS analysis; type: ADME, organism-based; conditions: in vivo, read-out: beta t1/2 (converted)
[24] = Elimination half life in Beagle dog at 2.5 mg/kg, iv by LC-MS/MS analysis; type: ADME, organism-based, Canis lupus familiaris; conditions: in vivo, read-out: beta t1/2 (converted)
[25] = Oral bioavailability in Sprague-Dawley rat at 100 mg/kg by LC-MS/MS analysis; type: ADME, organism-based; conditions: in vivo
[26] = AUCt in Sprague-Dawley rat at 10 mg/kg, iv by LC-MS/MS analysis; type: ADME, organism-based; conditions: in vivo
[27] = system: Staphylococcus aureus; test: Antibacterial activity against methicillin-sensitive Staphylococcus aureus infected in Kunming mouse dosed subcutaneously at 0.5 and 4.0 hrs postinfection and measured at 7 to 14 days post treatment by Bliss method; type: functional; conditions: sc
[28] = Elimination half life in Sprague-Dawley rat at 10 mg/kg, iv by LC-MS/MS analysis; type: ADME, organism-based; conditions: in vivo, read-out: beta t1/2 (converted)
[29] = molecular target: Cytochrome P450 2C9 (Homo sapiens, UniProt P11712); test: Inhibition of CYP2C9 in human liver microsomes using tolbutamide as substrate preincubated for 10 mins followed by NADPH addition and measured for 15 mins by LC-MS/MS analysis; type: ADME
[30] = AUCt in Beagle dog at 5 mg/kg, po by LC-MS/MS analysis; type: ADME, organism-based, Canis lupus familiaris; conditions: in vivo
[31] = AUCt in Sprague-Dawley rat at 100 mg/kg, po by LC-MS/MS analysis; type: ADME, organism-based; conditions: in vivo
[32] = molecular target: T1, Cytochrome P450 1A2 (Homo sapiens, UniProt P05177); test: Inhibition of CYP1A2 in human liver microsomes using phenacetin as substrate preincubated for 10 mins followed by NADPH addition and measured for 15 mins by LC-MS/MS analysis; type: ADME
T1 sequence (P05177 whole entry): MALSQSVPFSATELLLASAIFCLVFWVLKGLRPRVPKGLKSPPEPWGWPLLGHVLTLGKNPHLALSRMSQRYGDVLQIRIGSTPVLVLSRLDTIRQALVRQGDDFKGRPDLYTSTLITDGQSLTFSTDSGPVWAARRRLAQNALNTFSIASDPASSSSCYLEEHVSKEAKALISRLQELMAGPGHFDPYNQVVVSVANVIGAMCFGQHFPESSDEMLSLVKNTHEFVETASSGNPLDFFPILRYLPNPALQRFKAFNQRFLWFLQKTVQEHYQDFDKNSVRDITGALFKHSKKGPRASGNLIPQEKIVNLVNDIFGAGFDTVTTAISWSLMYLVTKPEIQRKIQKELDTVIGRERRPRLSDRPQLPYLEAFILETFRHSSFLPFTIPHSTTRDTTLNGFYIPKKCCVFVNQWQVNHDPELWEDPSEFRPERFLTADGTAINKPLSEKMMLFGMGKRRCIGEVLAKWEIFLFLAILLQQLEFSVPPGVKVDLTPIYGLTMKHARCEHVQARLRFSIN

[33] = molecular target: Cytochrome P450 2D6 (Homo sapiens, UniProt P10635); test: Inhibition of CYP2D6 in human liver microsomes using dextromethorphan as substrate preincubated for 10 mins followed by NADPH addition and measured for 15 mins by LC-MS/MS analysis; type: ADME
[34] = Clearance in Sprague-Dawley rat at 10 mg/kg, iv by LC-MS/MS analysis; type: ADME, organism-based; conditions: in vivo
[35] = system: Staphylococcus aureus; test: Antibacterial activity against methicillin-resistant Staphylococcus aureus infected in Kunming mouse dosed subcutaneously at 0.5 and 4.0 hrs postinfection and measured at 7 to 14 days post treatment by Bliss method; type: functional; conditions: sc
[36] = molecular target: Cytochrome P450 2C19 (Homo sapiens, UniProt P33261); test: Inhibition of CYP2C19 in human liver microsomes using mephenytoin as substrate preincubated for 10 mins followed by NADPH addition and measured for 15 mins by LC-MS/MS analysis; type: ADME
[37] = Elimination half life in Sprague-Dawley rat at 100 mg/kg, po by LC-MS/MS analysis; type: ADME, organism-based; conditions: in vivo, read-out: beta t1/2 (converted)
[38] = molecular target: T2, Cytochrome P450 3A4 (Homo sapiens, UniProt P08684); test: Inhibition of CYP3A4 in human liver microsomes using testosterone as substrate preincubated for 10 mins followed by NADPH addition and measured for 15 mins by LC-MS/MS analysis; type: ADME
[39] = Cmax in Sprague-Dawley rat at 100 mg/kg, po by LC-MS/MS analysis; type: ADME, organism-based; parameters: dose 100 mg/kg, route oral; conditions: in vivo
[40] = Volume of distribution at steady state in Sprague-Dawley rat at 10 mg/kg, iv by LC-MS/MS analysis; type: ADME, organism-based; conditions: in vivo, read-out: Vdss
[41] = Cmax in Sprague-Dawley rat at 10 mg/kg, po by LC-MS/MS analysis; type: ADME, organism-based; parameters: dose 10 mg/kg, route oral; conditions: in vivo
[42] = Oral bioavailability in Beagle dog at 5 mg/kg by LC-MS/MS analysis; type: ADME, organism-based, Canis lupus familiaris; conditions: in vivo
[43] = molecular target: Voltage-gated inwardly rectifying potassium channel KCNH2 (Homo sapiens, UniProt Q12809); test: Inhibition of human ERG expressed in CHO cells in at -80 mV holding potential by automated Qpatch clamp assay; type: cell-based
[44] = AUCt in Beagle dog at 2.5 mg/kg, iv by LC-MS/MS analysis; type: ADME, organism-based, Canis lupus familiaris; conditions: in vivo
[45] = molecular target: T2, Cytochrome P450 3A4; test: Inhibition of CYP3A4 in human liver microsomes using midazolam as substrate preincubated for 10 mins followed by NADPH addition and measured for 15 mins by LC-MS/MS analysis; type: ADME
[46] = AUCt in Sprague-Dawley rat at 10 mg/kg, po by LC-MS/MS analysis; type: ADME, organism-based; conditions: in vivo
[47] = Clearance in Beagle dog at 2.5 mg/kg, iv by LC-MS/MS analysis; type: ADME, organism-based, Canis lupus familiaris; conditions: in vivo
[48] = Volume of distribution at steady state in Beagle dog at 2.5 mg/kg, iv by LC-MS/MS analysis; type: ADME, organism-based, Canis lupus familiaris; conditions: in vivo, read-out: Vdss

Sequence of DNA gyrase (P0A0K8 whole entry): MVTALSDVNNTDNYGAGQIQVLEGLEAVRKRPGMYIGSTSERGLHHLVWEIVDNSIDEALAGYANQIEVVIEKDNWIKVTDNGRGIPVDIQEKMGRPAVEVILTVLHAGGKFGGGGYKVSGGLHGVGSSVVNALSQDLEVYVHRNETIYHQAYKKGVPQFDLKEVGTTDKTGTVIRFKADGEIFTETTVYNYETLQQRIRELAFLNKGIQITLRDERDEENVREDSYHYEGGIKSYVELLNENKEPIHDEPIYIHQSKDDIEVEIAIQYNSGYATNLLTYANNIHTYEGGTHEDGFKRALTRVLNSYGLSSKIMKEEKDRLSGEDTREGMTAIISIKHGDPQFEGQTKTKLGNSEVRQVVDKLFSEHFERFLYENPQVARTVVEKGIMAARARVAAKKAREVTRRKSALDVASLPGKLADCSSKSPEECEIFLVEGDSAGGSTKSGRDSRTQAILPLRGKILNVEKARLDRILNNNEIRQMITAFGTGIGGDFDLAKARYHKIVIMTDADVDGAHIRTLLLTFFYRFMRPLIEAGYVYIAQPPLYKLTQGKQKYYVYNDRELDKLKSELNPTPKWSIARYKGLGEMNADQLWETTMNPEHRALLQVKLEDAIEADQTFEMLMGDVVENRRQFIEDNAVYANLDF
Sequence of DNA gyrase (P20831 whole entry): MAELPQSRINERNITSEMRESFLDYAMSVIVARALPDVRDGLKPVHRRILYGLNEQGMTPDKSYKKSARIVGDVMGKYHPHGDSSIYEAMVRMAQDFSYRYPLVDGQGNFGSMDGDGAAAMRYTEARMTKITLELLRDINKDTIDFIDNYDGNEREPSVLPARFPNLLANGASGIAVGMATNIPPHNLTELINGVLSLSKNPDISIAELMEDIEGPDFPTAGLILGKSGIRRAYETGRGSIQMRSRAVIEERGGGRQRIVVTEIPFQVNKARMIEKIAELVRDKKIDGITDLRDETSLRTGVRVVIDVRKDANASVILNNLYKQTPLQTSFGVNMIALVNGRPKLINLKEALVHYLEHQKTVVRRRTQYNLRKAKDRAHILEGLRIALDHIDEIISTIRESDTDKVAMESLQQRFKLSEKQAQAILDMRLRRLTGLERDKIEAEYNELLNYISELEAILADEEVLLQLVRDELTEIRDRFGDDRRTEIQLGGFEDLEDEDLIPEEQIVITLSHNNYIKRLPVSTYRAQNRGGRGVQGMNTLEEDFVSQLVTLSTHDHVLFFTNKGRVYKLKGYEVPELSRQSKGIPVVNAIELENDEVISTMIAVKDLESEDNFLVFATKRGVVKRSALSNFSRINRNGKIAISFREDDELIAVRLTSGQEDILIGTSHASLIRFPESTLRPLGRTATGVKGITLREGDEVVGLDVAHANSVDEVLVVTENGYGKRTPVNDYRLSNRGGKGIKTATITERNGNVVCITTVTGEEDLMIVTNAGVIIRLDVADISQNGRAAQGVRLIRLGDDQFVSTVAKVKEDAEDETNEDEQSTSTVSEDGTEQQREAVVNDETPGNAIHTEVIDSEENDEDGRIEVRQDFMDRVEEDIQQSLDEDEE
T2 sequence (P08684 whole entry): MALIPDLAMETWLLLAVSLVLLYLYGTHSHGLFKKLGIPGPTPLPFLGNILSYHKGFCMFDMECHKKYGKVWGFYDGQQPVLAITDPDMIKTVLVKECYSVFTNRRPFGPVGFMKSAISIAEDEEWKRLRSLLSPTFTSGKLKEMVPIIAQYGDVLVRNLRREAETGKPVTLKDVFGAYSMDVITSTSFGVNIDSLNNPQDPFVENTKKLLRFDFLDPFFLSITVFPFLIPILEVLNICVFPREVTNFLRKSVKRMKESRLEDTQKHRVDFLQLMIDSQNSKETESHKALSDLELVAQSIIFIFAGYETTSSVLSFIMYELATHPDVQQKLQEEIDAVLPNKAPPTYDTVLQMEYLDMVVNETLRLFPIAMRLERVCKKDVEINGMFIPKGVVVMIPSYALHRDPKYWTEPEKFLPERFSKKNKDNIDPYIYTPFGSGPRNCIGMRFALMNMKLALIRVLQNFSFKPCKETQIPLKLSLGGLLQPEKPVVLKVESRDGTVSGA
Sequence of DNA topoisomerase 2-alpha (P11388 whole entry): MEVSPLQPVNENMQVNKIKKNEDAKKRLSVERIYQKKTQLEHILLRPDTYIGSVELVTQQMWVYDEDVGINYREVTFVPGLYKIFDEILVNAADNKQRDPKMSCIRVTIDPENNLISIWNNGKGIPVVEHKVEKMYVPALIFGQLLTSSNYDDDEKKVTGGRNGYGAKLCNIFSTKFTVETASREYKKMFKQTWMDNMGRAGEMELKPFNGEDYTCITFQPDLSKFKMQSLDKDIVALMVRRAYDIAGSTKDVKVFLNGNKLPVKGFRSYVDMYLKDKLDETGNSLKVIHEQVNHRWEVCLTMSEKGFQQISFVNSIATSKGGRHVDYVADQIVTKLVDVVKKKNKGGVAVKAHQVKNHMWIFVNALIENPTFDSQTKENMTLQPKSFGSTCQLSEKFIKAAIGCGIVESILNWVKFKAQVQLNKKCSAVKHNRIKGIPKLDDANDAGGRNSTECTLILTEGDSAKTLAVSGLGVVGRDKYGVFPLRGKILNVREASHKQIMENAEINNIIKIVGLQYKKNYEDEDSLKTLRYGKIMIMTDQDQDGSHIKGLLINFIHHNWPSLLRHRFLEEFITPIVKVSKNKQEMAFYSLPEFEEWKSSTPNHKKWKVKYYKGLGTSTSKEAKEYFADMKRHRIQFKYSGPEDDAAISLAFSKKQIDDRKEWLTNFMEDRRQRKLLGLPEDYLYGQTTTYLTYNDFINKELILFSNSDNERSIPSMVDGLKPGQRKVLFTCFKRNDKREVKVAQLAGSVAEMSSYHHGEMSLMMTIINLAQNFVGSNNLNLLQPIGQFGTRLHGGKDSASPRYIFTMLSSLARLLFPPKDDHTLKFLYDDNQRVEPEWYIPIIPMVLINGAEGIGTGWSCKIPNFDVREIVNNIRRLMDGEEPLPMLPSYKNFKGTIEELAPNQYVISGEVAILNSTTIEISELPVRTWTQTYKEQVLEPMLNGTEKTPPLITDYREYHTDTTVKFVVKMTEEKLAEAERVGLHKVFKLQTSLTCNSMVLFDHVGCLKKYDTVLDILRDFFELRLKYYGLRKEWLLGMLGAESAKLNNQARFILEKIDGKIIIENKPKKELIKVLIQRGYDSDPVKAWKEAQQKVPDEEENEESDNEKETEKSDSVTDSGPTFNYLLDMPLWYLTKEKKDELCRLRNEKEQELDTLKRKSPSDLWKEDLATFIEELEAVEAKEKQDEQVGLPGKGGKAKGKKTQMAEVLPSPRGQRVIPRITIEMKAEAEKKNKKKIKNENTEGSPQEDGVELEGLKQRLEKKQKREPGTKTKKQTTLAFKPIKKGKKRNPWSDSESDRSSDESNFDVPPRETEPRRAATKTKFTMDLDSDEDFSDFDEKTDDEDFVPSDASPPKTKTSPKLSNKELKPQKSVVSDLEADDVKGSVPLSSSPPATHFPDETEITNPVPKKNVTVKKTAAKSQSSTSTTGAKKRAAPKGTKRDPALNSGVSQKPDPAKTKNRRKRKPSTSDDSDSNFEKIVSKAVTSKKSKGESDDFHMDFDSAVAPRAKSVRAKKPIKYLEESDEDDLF
Sequence of Cytochrome P450 2C9 (P11712 whole entry): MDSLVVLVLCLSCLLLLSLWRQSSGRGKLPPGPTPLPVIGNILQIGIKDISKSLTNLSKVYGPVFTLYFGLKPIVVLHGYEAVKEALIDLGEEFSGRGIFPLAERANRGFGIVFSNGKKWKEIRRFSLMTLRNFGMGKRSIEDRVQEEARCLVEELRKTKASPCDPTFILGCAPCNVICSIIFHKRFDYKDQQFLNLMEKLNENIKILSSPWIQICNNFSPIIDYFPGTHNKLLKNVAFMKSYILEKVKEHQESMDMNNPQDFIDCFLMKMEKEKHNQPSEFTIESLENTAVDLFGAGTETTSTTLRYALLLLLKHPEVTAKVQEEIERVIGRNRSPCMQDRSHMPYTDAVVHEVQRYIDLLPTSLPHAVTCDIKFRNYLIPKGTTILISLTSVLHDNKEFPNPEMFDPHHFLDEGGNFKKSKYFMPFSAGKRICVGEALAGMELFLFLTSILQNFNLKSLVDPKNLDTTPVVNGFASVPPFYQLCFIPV
Sequence of Cytochrome P450 2D6 (P10635 whole entry): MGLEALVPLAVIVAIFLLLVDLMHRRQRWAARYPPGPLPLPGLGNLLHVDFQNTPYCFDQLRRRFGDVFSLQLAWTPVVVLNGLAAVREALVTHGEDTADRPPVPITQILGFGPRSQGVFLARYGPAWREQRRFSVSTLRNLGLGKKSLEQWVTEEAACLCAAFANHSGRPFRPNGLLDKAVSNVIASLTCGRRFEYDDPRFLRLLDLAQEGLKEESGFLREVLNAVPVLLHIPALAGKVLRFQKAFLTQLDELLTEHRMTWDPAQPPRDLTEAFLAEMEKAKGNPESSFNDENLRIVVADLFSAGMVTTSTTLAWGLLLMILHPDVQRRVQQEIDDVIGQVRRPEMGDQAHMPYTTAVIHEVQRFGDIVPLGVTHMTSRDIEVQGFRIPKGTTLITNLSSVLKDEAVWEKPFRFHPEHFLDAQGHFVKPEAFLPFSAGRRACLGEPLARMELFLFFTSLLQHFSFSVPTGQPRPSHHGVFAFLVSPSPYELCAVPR
Sequence of Cytochrome P450 2C19 (P33261 whole entry): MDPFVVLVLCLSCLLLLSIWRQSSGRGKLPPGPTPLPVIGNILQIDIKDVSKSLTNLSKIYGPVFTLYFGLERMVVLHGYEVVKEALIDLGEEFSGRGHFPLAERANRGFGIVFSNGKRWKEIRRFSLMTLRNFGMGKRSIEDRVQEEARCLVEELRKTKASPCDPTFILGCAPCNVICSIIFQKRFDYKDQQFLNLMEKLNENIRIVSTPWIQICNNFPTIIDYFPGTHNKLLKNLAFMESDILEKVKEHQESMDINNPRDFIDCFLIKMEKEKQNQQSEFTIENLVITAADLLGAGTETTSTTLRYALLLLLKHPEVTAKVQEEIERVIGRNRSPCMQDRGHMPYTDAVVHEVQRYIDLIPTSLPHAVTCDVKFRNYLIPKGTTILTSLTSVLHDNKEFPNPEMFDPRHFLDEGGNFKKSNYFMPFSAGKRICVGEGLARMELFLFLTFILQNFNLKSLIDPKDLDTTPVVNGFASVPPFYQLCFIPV

## C[C@@H]1CN2c3c(cc4c(N5CCOC5=O)noc4c3F)CC3(C(=O)NC(=O)NC3=O)[C@H]2[C@H](C)O1
[1]
  solubility at 24 h: 139 µM (≈ 65.8 µg/mL)
[2]
  MIC: 0.25 to 1 µg/mL (≈ 0.528 to 2.11 µM)
[3]
  ED50: 11 mg/kg
[4]
  half-life: 205 min
[5]
  MIC: 0.06 to 0.25 µg/mL (≈ 0.127 to 0.528 µM)
[6]; Streptococcus pyogenes, read-out: MIC
  MIC: 0.25 to 0.5 µg/mL (≈ 0.528 to 1.06 µM)
[7]
  solubility at 24 h: 128 µM (≈ 60.6 µg/mL)
[8]
  MIC50: 0.03 µg/mL (≈ 0.0634 µM)
  MIC90: 0.125 µg/mL (≈ 0.264 µM)
[9]
  IC50: 24.3 µM
[10]
  MRT: 7.06 h
[11]
  MIC: 0.03 to 0.25 µg/mL (≈ 0.0634 to 0.528 µM)
[12]
  AUC(0-t): 748 ng·h/mL
[13]
  ED50: 11.5 mg/kg
[14]
  MIC: 0.03 to 1 µg/mL (≈ 0.0634 to 2.11 µM)
[15]
  solubility at 24 h: 121 µM (≈ 57.3 µg/mL)
[16]
  MIC: 0.125 to 0.25 µg/mL (≈ 0.264 to 0.528 µM)
[17]
  IC50: > 200 µM
[18]
  Cmax: 183 ng/mL
[19]
  Tmax: 0.58 h

## C[C@@H]1CN2c3c(cc4c(N5CC6(CC6)OC5=O)noc4c3F)CC3(C(=O)NC(=O)NC3=O)[C@H]2[C@H](C)O1
[20]
  Cmax: 2860 ng/mL
[21]
  half-life: 219 min
[22]
  bioavailability: 22.6%
[1]
  solubility at 24 h: 204 µM (≈ 102 µg/mL)
[23]
  half-life: 223 min
[24]
  half-life: 209 min
[25]
  bioavailability: 45.8%
[26]
  AUC(0-t): 104 µg·h/mL
[27]
  ED50: 8.37 mg/kg
[28]
  half-life: 229 min
[29]
  IC50: > 25 µM
[4]
  half-life: 372 min
[30]
  AUC(0-t): 17500 ng·h/mL
[6]
  MIC: <0.03 µg/mL
[31]
  AUC(0-t): 478 µg·h/mL
[32]
  IC50: 13 µM
[7]
  solubility at 24 h: 277 µM (≈ 138 µg/mL)
[33]
  IC50: > 25 µM
[34]
  clearance: 1.57 mL/min/kg
[8]
  MIC50: 0.06 µg/mL (≈ 0.12 µM)
  MIC90: 0.125 µg/mL (≈ 0.25 µM)
[9]
  IC50: 7.8 µM
[10]
  MRT: 8.94 h
[12]
  AUC(0-t): 24200 ng·h/mL
[35]
  ED50: 3.87 mg/kg
[36]
  IC50: > 25 µM
[15]
  solubility at 24 h: 151 µM (≈ 75.4 µg/mL)
[16]
  MIC: ≤ 0.03 µg/mL
[37]
  half-life: 335 min
[38]
  IC50: > 25 µM
[39]
  Cmax: 35400 ng/mL
[40]
  Vd: 0.482 L/kg
[41]
  Cmax: 2260 ng/mL
[17]
  IC50: > 200 µM
[18]
  Cmax: 2580 ng/mL
[42]
  bioavailability: 96.6%
[43]
  IC50: > 40 µM
[44]
  AUC(0-t): 9100 ng·h/mL
[45]
  IC50: > 25 µM
[46]
  AUC(0-t): 23600 ng·h/mL
[47]
  clearance: 4.91 mL/min/kg
[48]
  Vd: 1 L/kg
[19]
  Tmax: 2.67 h
